# Reference: US12662490B2, “Heterocyclic compounds” (Hoffmann-La Roche Inc., priority 2019, dated 2026)
# Biological target: T1, MAGL (Homo sapiens, UniProt Q99685)
# T1 sequence (Q99685 1-303): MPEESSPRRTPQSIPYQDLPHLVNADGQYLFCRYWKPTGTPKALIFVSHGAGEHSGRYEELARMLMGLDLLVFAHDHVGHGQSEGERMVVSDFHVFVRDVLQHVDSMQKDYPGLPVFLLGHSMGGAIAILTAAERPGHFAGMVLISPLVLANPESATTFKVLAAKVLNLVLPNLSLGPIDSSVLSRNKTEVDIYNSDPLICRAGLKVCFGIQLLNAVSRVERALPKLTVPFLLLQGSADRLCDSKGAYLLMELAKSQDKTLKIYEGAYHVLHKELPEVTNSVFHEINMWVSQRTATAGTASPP
# Experiment: 2-AG assay (MAGL inhibitory activity; hydrolysis of 2-arachidonoylglycerol to arachidonic acid followed by mass spectrometry)
# Type: biochemical
# Conditions: 15 min preincubation at RT, 8 μM 2-arachidonoylglycerol, 30 min at RT, RapidFire MS readout
# Procedure, shortened: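 Compounds (final 12.5 μM to […], 3-fold steps) preincubated 15 min at RT with MAGL ([…]) in 50 mM TRIS, 1 mM EDTA, Tween buffer. Reaction started with 8 μM 2-arachidonoylglycerol, run 30 min at RT, quenched with ACN containing d8-arachidonic acid. Arachidonic acid quantified by RapidFire SPE-triple quadrupole MS (negative ESI), activity from arachidonic acid/d8 ratio.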
row,IC50 [nM],SMILES
1,232,"COc1cccc(C(=O)N2CCN3C[C@@H](c4cc(Cl)ccn4)OC[C@@H]3C2)c1Cl [Example 91, [(3S,9aS)-3-(4-chloro-2-pyridyl)-3,4,6,7,9,9a-hexahydro-1H-pyrazino[2,1-c][1,4]oxazin-8-yl]-(2-chloro-3-methoxy-phenyl)methanone]"
2,10.9,"COc1cccc(C(=O)N2CCN3C[C@@H](c4ccc(F)c(Br)c4)OC[C@@H]3C2)c1Cl [Example 6, [(3R,9aS)-3-(3-bromo-4-fluoro-phenyl)-3,4,6,7,9,9a-hexahydro-1H-pyrazino[2,1-c][1,4]oxazin-8-yl]-(2-chloro-3-methoxy-phenyl)methanone]"
3,173,"O=C(c1cccc(-c2cccnn2)c1Cl)N1CCN2C[C@@H](c3ccc(F)c(Cl)c3)OC[C@@H]2C1 [Example 31, [(3R,9aS)-3-(3-chloro-4-fluoro-phenyl)-3,4,6,7,9,9a-hexahydro-1H-pyrazino[2,1-c][1,4]oxazin-8-yl]-(2-chloro-3-pyridazin-3-yl-phenyl)methanone]"
4,1600,"COc1ccc(-c2nc([C@]3(O)CN4CCN(C(=O)c5cccc(OC)c5Cl)C[C@H]4CO3)cs2)cn1 [Example 160, [(3S,9aS)-3-hydroxy-3-[2-(6-methoxy-3-pyridyl)thiazol-4-yl]-1,4,6,7,9,9a-hexahydropyrazino[2,1-c][1,4]oxazin-8-yl]-(2-chloro-3-methoxy-phenyl)methanone]"
5,53.3,"O=C(c1cccc(-c2c[nH]nc2F)c1Cl)N1CCN2CC(c3ccc(OC(F)F)cc3)OC[C@@H]2C1 (mixture of isomers) [Example 73, (2-chloro-3-(3-fluoro-1H-pyrazol-4-yl)phenyl)((9aS)-3-(4-(difluoromethoxy)phenyl)hexahydropyrazino[2,1-c][1,4]oxazin-8(1H)-yl)methanone]"
6,82.8,"COc1cccc(C(=O)N2CCN3C[C@@](O)(c4cc(Cl)cc(Br)c4)OC[C@@H]3C2)c1Cl [Example 125, [(3R,9aS)-3-(3-bromo-5-chloro-phenyl)-3-hydroxy-1,4,6,7,9,9a-hexahydropyrazino[2,1-c][1,4]oxazin-8-yl]-(2-chloro-3-methoxy-phenyl)methanone]"
7,284,"COc1cccc(C(=O)N2CCN3C[C@@H](c4cc(OC(F)(F)F)ccn4)OC[C@@H]3C2)c1Cl [Example 99, (2-chloro-3-methoxy-phenyl)-[(3S,9aS)-3-[4-(trifluoromethoxy)-2-pyridyl]-3,4,6,7,9,9a-hexahydro-1H-pyrazino[2,1-c][1,4]oxazin-8-yl]methanone]"
8,130,"O=C(c1cccc(-c2c[nH]nc2F)c1F)N1CCN2C[C@@](O)(c3ccc(C(F)(F)F)nc3)OC[C@@H]2C1 [Example 78, [(3R,9aS)-3-hydroxy-3-[6-(trifluoromethyl)-3-pyridyl]-1,4,6,7,9,9a-hexahydropyrazino[2,1-c][1,4]oxazin-8-yl]-[2-fluoro-3-(3-fluoro-1H-pyrazol-4-yl)phenyl]methanone]"
9,1910,"COc1cccc(C(=O)N2CCN3C[C@H](c4ccc(F)c(Cl)c4)OC[C@@]3(C)C2)c1Cl (stereo in doubt) [Example 33, (2-chloro-3-methoxy-phenyl)-[(rel-3S,9aR)-3-(3-chloro-4-fluoro-phenyl)-9a-methyl-1,3,4,6,7,9-hexahydropyrazino[2,1-c][1,4]oxazin-8-yl]methanone]"
10,44.6,"O=C(c1cccc(-c2c[nH]nc2F)c1Cl)N1CCN2CC(c3ccc(Br)nc3)OC[C@@H]2C1 (mixture of isomers) [Example 70, [2-chloro-3-(3-fluoro-1H-pyrazol-4-yl)phenyl]-[(9aS)-3-(6-bromo-3-pyridyl)-3,4,6,7,9,9a-hexahydro-1H-pyrazino[2,1-c][1,4]oxazin-8-yl]methanone]"
11,34.7,"COc1cccc(C(=O)N2CCN3C[C@@](O)(c4ccc(C(F)(F)F)cc4)OC[C@@H]3C2)c1Cl [Example 119, [(3R,9aS)-3-hydroxy-3-[4-(trifluoromethyl)phenyl]-1,4,6,7,9,9a-hexahydropyrazino[2,1-c][1,4]oxazin-8-yl]-(2-chloro-3-methoxy-phenyl)methanone]"
12,1240,"O=C(c1cccc(-c2c[nH]nc2F)c1Cl)N1CCN2C[C@H](c3ccc(F)c(F)c3)OC[C@@H]2C1 [Example 96, [(3S,9aS)-3-(3,4-difluorophenyl)-3,4,6,7,9,9a-hexahydro-1H-pyrazino[2,1-c][1,4]oxazin-8-yl]-[2-chloro-3-(3-fluoro-1H-pyrazol-4-yl)phenyl]methanone]"
13,42.4,"COc1cccc(C(=O)N2CCN3C[C@@](O)(c4ccc(Cl)c(F)c4)OC[C@@H]3C2)c1Cl [Example 120, [(3R,9aS)-3-(4-chloro-3-fluoro-phenyl)-3-hydroxy-1,4,6,7,9,9a-hexahydropyrazino[2,1-c][1,4]oxazin-8-yl]-(2-chloro-3-methoxy-phenyl)methanone]"
14,1380,"COc1cccc(C(=O)N2CCN3C[C@H](c4sc(C)nc4C)OC[C@H]3C2)c1Cl (single isomer, unassigned) [Example 52]"
15,288,"COc1cccc(C(=O)N2CCN3C[C@@](O)(c4cccc(C(F)(F)F)c4)OC[C@@H]3C2)c1Cl [Example 141, [(3R,9aS)-3-hydroxy-3-[3-(trifluoromethyl)phenyl]-1,4,6,7,9,9a-hexahydropyrazino[2,1-c][1,4]oxazin-8-yl]-(2-chloro-3-methoxy-phenyl)methanone]"
16,28.2,"O=C(c1cnc2sccc2c1Cl)N1CCN2C[C@@H](c3ccc(F)c(Cl)c3)OC[C@@H]2C1 [Example 5, (4-chlorothieno[2,3-b]pyridin-5-yl)-[(3R,9aS)-3-(3-chloro-4-fluoro-phenyl)-3,4,6,7,9,9a-hexahydro-1H-pyrazino[2,1-c][1,4]oxazin-8-yl]methanone]"
17,10.8,"O=C(c1cc(F)cc(-c2cc[nH]c(=O)c2)c1Cl)N1CCN2C[C@@H](c3ccc(F)c(Cl)c3)OC[C@@H]2C1 [Example 114, 4-[3-[(3R,9aS)-3-(3-chloro-4-fluoro-phenyl)-3,4,6,7,9,9a-hexahydro-1H-pyrazino[2,1-c][1,4]oxazine-8-carbonyl]-2-chloro-5-fluoro-phenyl]-1H-pyridin-2-one]"
18,277,"O=C(c1cccc(-c2n[nH]cc2F)c1Cl)N1CCN2C[C@@H](c3cc(Cl)c[nH]c3=O)OC[C@@H]2C1 [Example 140, 3-[(3R,9aS)-8-[2-chloro-3-(4-fluoro-1H-pyrazol-3-yl)benzoyl]-3,4,6,7,9,9a-hexahydro-1H-pyrazino[2,1-c][1,4]oxazin-3-yl]-5-chloro-1H-pyridin-2-one]"
19,179,"C/C=C/c1cc([C@@H]2CN3CCN(C(=O)c4cccc(OC)c4Cl)C[C@H]3CO2)ccc1F (racemic) [Example 10, (2-chloro-3-methoxy-phenyl)-[(3R,9aS)-3-[4-fluoro-3-[rac-(E)-prop-1-enyl]phenyl]-3,4,6,7,9,9a-hexahydro-1H-pyrazino[2,1-c][1,4]oxazin-8-yl]methanone]"
20,335,"COc1cccc(C(=O)N2CCN3C[C@@H](c4ccc(F)c(Cl)c4)OC[C@]3(C)C2)c1Cl (stereo in doubt) [Example 32, (2-chloro-3-methoxy-phenyl)-[(rel-3R,9aS)-3-(3-chloro-4-fluoro-phenyl)-9a-methyl-1,3,4,6,7,9-hexahydropyrazino[2,1-c][1,4]oxazin-8-yl]methanone]"
21,10.7,"O=C(c1cccc(-c2c[nH]nc2F)c1Cl)N1CCN2C[C@@](F)(c3ccc(C(F)(F)F)nc3)OC[C@@H]2C1 [Example 88, [2-chloro-3-(3-fluoro-1H-pyrazol-4-yl)phenyl]-[(3S,9aS)-3-fluoro-3-[6-(trifluoromethyl)-3-pyridyl]-1,4,6,7,9,9a-hexahydropyrazino[2,1-c][1,4]oxazin-8-yl]methanone]"
22,33.1,"O=C(c1cccc(-c2c[nH]c(=O)o2)c1Cl)N1CCN2C[C@@H](c3ccc(Cl)c(Cl)c3)OC[C@@H]2C1 [Example 118, 5-[3-[(3R,9aS)-3-(3,4-dichlorophenyl)-3,4,6,7,9,9a-hexahydro-1H-pyrazino[2,1-c][1,4]oxazine-8-carbonyl]-2-chloro-phenyl]-3H-oxazol-2-one]"
23,333,"COc1cccc(C(=O)N2CCN3C[C@H](c4cc(C)c(Cl)cn4)OC[C@@H]3C2)c1Cl [Example 84, (2-chloro-3-methoxyphenyl)((3R,9aS)-3-(5-chloro-4-methylpyridin-2-yl)hexahydropyrazino[2,1-c][1,4]oxazin-8(1H)-yl)methanone]"
24,7.6,"N#Cc1cc(-c2cccc(C(=O)N3CCN4C[C@@](O)(c5ccc(F)c(F)c5)OC[C@@H]4C3)c2Cl)c[nH]1 [Example 113, 4-[3-[(3R,9aS)-3-(3,4-difluorophenyl)-3-hydroxy-1,4,6,7,9,9a-hexahydropyrazino[2,1-c][1,4]oxazine-8-carbonyl]-2-chloro-phenyl]-1H-pyrrole-2-carbonitrile]"
25,13.5,"N#Cc1cc(-c2cc(F)cc(C(=O)N3CCN4C[C@@H](c5cc(Cl)c[nH]c5=O)OC[C@@H]4C3)c2Cl)c[nH]1 [Example 115, 4-[3-[(3R,9aS)-3-(5-chloro-2-oxo-1H-pyridin-3-yl)-3,4,6,7,9,9a-hexahydro-1H-pyrazino[2,1-c][1,4]oxazine-8-carbonyl]-2-chloro-5-fluoro-phenyl]-1H-pyrrole-2-carbonitrile]"
26,363,"COc1cccc(C(=O)N2CCN3CC(c4ccc(F)c(-c5cnco5)c4)OC[C@@H]3C2)c1Cl (stereo partly drawn) [Example 145, [(9aS)-3-(4-fluoro-3-oxazol-5-yl-phenyl)-3,4,6,7,9,9a-hexahydro-1H-pyrazino[2,1-c][1,4]oxazin-8-yl]-(2-chloro-3-methoxy-phenyl)methanone]"
